Data reported in patent publication US20220323406A1, “METHODS AND COMPOSITIONS FOR DIFFERENTIATING STEM CELLS” (Massachusetts Institute of Technology, priority 2019, published 2022).
Structures can show the parent of a compound that is named as a salt.

Experiments:
[1] = system: ENR+CD organoids (ISC to Paneth cell differentiation); experiment: Primary screen: basal (non-stimulated) lysozyme secretion LYZ.NS, 2.5-D 384-well ENR+CD organoid differentiation; assay type: cell-based, mouse
From the text: (§1) High-throughput screening.

[2] = system: ENR+CD organoids (ISC to Paneth cell differentiation); experiment: Primary screen: CCh-stimulated lysozyme secretion LYZ.S, 2.5-D 384-well ENR+CD organoid differentiation; assay type: cell-based, mouse; settings: primary screen
From the text: as §1

[3] = system: ENR+CD organoids; experiment: Primary screen: ATP (CellTiter-Glo 3D, CTG) cell number/viability, 2.5-D 384-well ENR+CD organoids; settings: primary screen; for Z.CTG: standard z score;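 as to all read-outs here: compounds given at plating and again on day 3 over a 6-day differentiation from ENR+CV stem-cell-enriched precursors, ATP measured on day 6, plate median as control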
[4] = dose 0.08 uM, FC vs plate median
[5] = dose 0.40 uM, FC vs plate median
[6] = dose 2.00 uM, FC vs plate median
[7] = dose 10.00 uM, FC vs plate median

SMILES	Z.LYZ.NS (standard z score) ([1]; primary screen, dose 0.08 uM)	Z.LYZ.NS (standard z score) ([1]; primary screen, dose 0.40 uM)	Z.LYZ.NS (standard z score) ([1]; primary screen, dose 2.00 uM)	Z.LYZ.NS (standard z score) ([1]; primary screen, dose 10.00 uM)	Z.CTG (standard z score) ([3]; dose 0.08 uM)	Z.CTG (standard z score) ([3]; dose 0.40 uM)	Z.CTG (standard z score) ([3]; dose 2.00 uM)	Z.CTG (standard z score) ([3]; dose 10.00 uM)	Dose.FC.LYZ.NS ([1]; primary screen, dose 0.08 uM) [log2 fold change]	Dose.FC.LYZ.NS ([1]; primary screen, dose 0.40 uM) [log2 fold change]	Dose.FC.LYZ.NS ([1]; primary screen, dose 2.00 uM) [log2 fold change]	Dose.FC.LYZ.NS ([1]; primary screen, dose 10.00 uM) [log2 fold change]	Dose.FC.LYZ.S ([2]; dose 0.08 uM) [log2 fold change]	Dose.FC.LYZ.S ([2]; dose 0.40 uM) [log2 fold change]	Dose.FC.LYZ.S ([2]; dose 2.00 uM) [log2 fold change]	Dose.FC.LYZ.S ([2]; dose 10.00 uM) [log2 fold change]	Dose.FC.CTG ([3]; dose 0.08 uM) [log2 fold change]	Dose.FC.CTG ([3]; dose 0.40 uM) [log2 fold change]	Dose.FC.CTG ([3]; dose 2.00 uM) [log2 fold change]	Dose.FC.CTG ([3]; dose 10.00 uM) [log2 fold change]	further results
Fc1cc(F)c2c(c1)[C@H]1C=CC[C@H]1C(c1cccnc1)N2 (mixture of isomers) [Golgicide A]	2.325	0.576	1.492	−1.402	0.398	0.541	0.810	−0.526	–	–	–	–	–	–	–	–	–	–	–	–	Dose.FC.LYZ.NS (log2 fold change) ([1]; primary screen, dose 0.08 uM): 0.267; Dose.FC.LYZ.NS (log2 fold change) ([1]; primary screen, dose 0.40 uM): 0.066; Dose.FC.LYZ.NS (log2 fold change) ([1]; primary screen, dose 2.00 uM): 0.171; Dose.FC.LYZ.NS (log2 fold change) ([1]; primary screen, dose 10.00 uM): −0.161; Dose.FC.LYZ.S (log2 fold change) ([2]; dose 0.08 uM): 0.146; Dose.FC.LYZ.S (log2 fold change) ([2]; dose 0.40 uM): 0.202; Dose.FC.LYZ.S (log2 fold change) ([2]; dose 2.00 uM): 0.076; Dose.FC.LYZ.S (log2 fold change) ([2]; dose 10.00 uM): −0.256; Dose.FC.CTG (log2 fold change) ([3]; dose 0.08 uM): 0.167; Dose.FC.CTG (log2 fold change) ([3]; dose 0.40 uM): 0.227; Dose.FC.CTG (log2 fold change) ([3]; dose 2.00 uM): 0.339; Dose.FC.CTG (log2 fold change) ([3]; dose 10.00 uM): −0.220
CCNC(=O)[C@H]1O[C@@H](n2cnc3c(N)nc(NCCc4ccc(CCC(=O)O)cc4)nc32)[C@H](O)[C@@H]1O [CGS 21680 HCl]	–	–	–	–	–	–	–	–	0.132	0.167	0.055	−0.251	0.180	0.191	0.097	−0.334	0.303	0.439	0.335	−1.393	Z.LYZ.NS ([1]; primary screen, standard z score, dose 0.08 uM): 1.151; Z.LYZ.NS ([1]; primary screen, standard z score, dose 0.40 uM): 1.452; Z.LYZ.NS ([1]; primary screen, standard z score, dose 2.00 uM): 0.483; Z.LYZ.NS ([1]; primary screen, standard z score, dose 10.00 uM): −2.187
Nc1ncnc2c1c(-c1cccc(OCc3ccccc3)c1)cn2C1CC(CN2CCCC2)C1 (stereo not drawn) [NVP-ADW742]	–	–	–	–	–	–	–	–	–	–	–	–	–	–	–	–	–	–	–	–	Z.LYZ.NS ([1]; primary screen, dose 0.08 uM, standard z score): 1.239; Z.LYZ.NS ([1]; primary screen, dose 0.40 uM, standard z score): 1.499; Z.LYZ.NS ([1]; primary screen, dose 2.00 uM, standard z score): −0.823; Z.LYZ.NS ([1]; primary screen, dose 10.00 uM, standard z score): −1.172; Dose.FC.LYZ.NS ([1]; primary screen; dose 0.08 uM; FC vs plate median): 0.142 log2 fold change; Dose.FC.LYZ.NS ([1]; primary screen; dose 0.40 uM; FC vs plate median): 0.172 log2 fold change; Dose.FC.LYZ.NS ([1]; primary screen; dose 2.00 uM; FC vs plate median): −0.095 log2 fold change; Dose.FC.LYZ.NS ([1]; primary screen; dose 10.00 uM; FC vs plate median): −0.135 log2 fold change; Dose.FC.LYZ.S [2, 4]: 0.245 log2 fold change; Dose.FC.LYZ.S [2, 5]: 0.265 log2 fold change; Dose.FC.LYZ.S [2, 6]: −0.166 log2 fold change; Dose.FC.LYZ.S [2, 7]: −0.210 log2 fold change; Z.CTG ([3]; dose 0.08 uM): 1.622; Z.CTG ([3]; dose 0.40 uM): 1.583; Z.CTG ([3]; dose 2.00 uM): 0.614; Z.CTG ([3]; dose 10.00 uM): −1.112; Dose.FC.CTG [3, 4]: 0.679 log2 fold change; Dose.FC.CTG [3, 5]: 0.663 log2 fold change; Dose.FC.CTG [3, 6]: 0.257 log2 fold change; Dose.FC.CTG [3, 7]: −0.465 log2 fold change
COc1cc(F)c(C(C)C)cc1-c1ccc(C(F)(F)F)cc1CN1C(=O)O[C@H](c2cc(C(F)(F)F)cc(C(F)(F)F)c2)[C@@H]1C [Anacetrapib (MK-0859)]	0.112	0.060	−0.129	−0.314	−0.214	0.084	−0.225	0.075	0.013	0.007	−0.015	−0.036	0.051	−0.002	−0.046	−0.036	−0.090	0.035	−0.094	0.031	–
CC(C)(C)c1cc(/C=C(\C#N)C(N)=S)cc(C(C)(C)C)c1O [Tyrphostin AG 879]	0.088	−0.680	−0.698	−0.960	−0.828	−0.569	−0.554	−0.879	0.010	−0.078	−0.080	−0.110	−0.083	−0.084	−0.051	−0.123	−0.347	−0.238	−0.232	−0.368	–
